How the values were obtained:
human DAT [1] = molecular target: T1, human DAT (Homo sapiens, UniProt Q01959); test: [3H]dopamine uptake inhibition, intact cells; type: cell-based
T1 construct: gene SLC6A3; full-length codon-optimized human DAT with N-terminal mScarlet-I tag (subcloned from EYFP-DAT), stably expressed in TAAR1 KO HEK293 cells

human DAT [2] = molecular target: T1, human DAT; test: […]RTI-55 competition binding, cell membranes; conditions: read-out: Inhibition of [^125I]RTI-55 Binding pKi ± SD (n) (converted)
[3] = substrate: NCCc1ccc(O)c(O)c1; test: cells, lysate or membranes; conditions: TAAR1-/- DAT cells, vehicle pretreatment, 10 min uptake; labelled compound; n=4

## CC[C@@H](C[C@H]1COC(N)=N1)c1ccccc1 [RO5256390]
Human DAT [1]; 20 nM [3H]DA, 10 min preincubation, 10 min uptake, 25 °C, Krebs-HEPES buffer, n=6
  Inhibition of [^3H]DA Uptake pIC50 ± SD (n): 5.73 ± 0.23

## CCN(C[C@H]1COC(N)=N1)c1ccccc1 [RO5166017]
Human DAT [1]; read-out: Inhibition of [^3H]DA Uptake pIC50 ± SD (n) (converted)
  IC50: 17.4 µM
Human DAT [2]
  Ki: 21.9 µM

B1: human DAT (Homo sapiens) (protein)
chain: MSKSKCSVGLMSSVVAPAKEPNAVGPKEVELILVKEQNGVQLTSSTLTNPRQSPVEAQDRETWGKKIDFLLSVIGFAVDLANVWRFPYLCYKNGGGAFLVPYLLFMVIAGMPLFYMELALGQFNREGAAGVWKICPILKGVGFTVILISLYVGFFYNVIIAWALHYLFSSFTTELPWIHCNNSWNSPNCSDAHPGDSSGDSSGLNDTFGTTPAAEYFERGVLHLHQSHGIDDLGPPRWQLTACLVLVIVLLYFSLWKGVKTSGKVVWITATMPYVVLTALLLRGVTLPGAIDGIRAYLSVDFYRLCEASVWIDAATQVCFSLGVGFGVLIAFSSYNKFTNNCYRDAIVTTSINSLTSFSSGFVVFSFLGYMAQKHSVPIGDVAKDGPGLIFIIYPEAIATLPLSSAWAVVFFIMLLTLGIDSAMGGMESVITGLIDEFQLLHRHRELFTLFIVLATFLLSLFCVTNGGIYVFTLLDHFAAGTSILFGVLIEAIGVAWFYGVGQFSDDIQQMTGQRPSLYWRLCWKLVSPCFLLFVVVVSIVTFRPPHYGAYIFPDWANALGWVIATSSMAMVPIYAAYKFCSLPGSFREKLAYAIAPEKDRELVDRGEVRQFTLRHWLKV
[3]
  Km: 0.631 ± 0.26 µM
  Vmax: 1.63e-06 µmol/min/mg

Source: PMC12597562 (Molecular Pharmacology, 2025)
